In patent US4439436A, “1,3-Dioxolo(4,5-G)quinoline compounds” (Sterling Drug Inc., priority 1982, dated 1984) one finds MIC and ED50 data, which are given here for five compounds.

Values after ≈ are worked out from the molar mass of the structure shown. Where two headings read alike, the source gives them in different places.

Test [1] deals with Escherichia coli Vogel. In words: in vitro antibacterial activity, serial dilution (MIC). The format is cell-based. How it is done:
(§1) The in vitro antibacterial activity was determined by conventional serial dilution procedures. Bacterial cultures were grown in tryptose phosphate broth or brain heart infusion broth (containing heat-inactivated normal horse serum for tests with S. pyogenes) overnight at 37° C. and subsequently diluted in double strength broth to provide bacterial inocula of about 2×10^5 cells/ml. Aqueous solutions of the compounds of the invention were prepared by dissolving the free acid form in 0.5 N sodium hydroxide. The solutions were diluted with sterile distilled water to 100 mcg/ml of compound in terms of the free acid. Serial two-fold dilutions of the compound stock solutions were prepared in water and 0.5 ml of each dilution was transferred to sets of tubes, one set for each bacterial inoculum. Each tube was then inoculated with 0.5 ml of the appropriate culture, resulting in a final bacterial concentration of about 1×10^5 cells/ml. The minimal inhibitory concentration (MIC), defined as the lowest concentration of the test compound to inhibit visible bacterial growth, was recorded after 18-20 hours of static incubation at 37° C.

For the next test, the system named is Proteus mirabilis MGH-1. The test is described as above. The format is cell-based. The conditions noted are these: MGH1. How it is done:
as §1

The next test deals with Proteus vulgaris 9920. Described as above. The format is cell-based. On the procedure:
as §1

Test [2] deals with Klebsiella pneumoniae 39645. The description is as above. The format is cell-based. How it is done:
as §1

The test system of test [3] is Escherichia coli Vogel. In words: in vivo antibacterial activity in mice infected with E. coli. More on the design: species or system female mice. The settings on record: sc, 168 h. On the procedure:
(§2) The in vivo antibacterial activity of the compounds of the invention was determined in female mice, 18-20 grams each, by the following procedure:
(§3) Aqueous solutions of the compounds to be tested were prepared by dissolving the free acid form in dilute sodium hydroxide and diluting the solution with distilled water to the desired volume.
(§4) Cultures of Escherichia coli Vogel prepared in brain heart infusion broth, cultures of Klebsiella pneumoniae 39645 grown in tryptose phosphate broth with 5% rabbit serum diluted in the same broth were used to infect the mice as follows:
E coli: mice were inoculated intraperitoneally with 0.5 ml of the bacterial test inoculum (1.87×10^7 and 5×10^6 cells/ml respectively).
Mice infected with E. coli were medicated once (0.5 ml) one-half hour post infection, the test compound being administered by the subcutaneous (s.c.) route. Deaths were recorded daily for seven days.
(§5) Groups of ten animals each for four or five dose levels were thus treated and the number of survivors in each group recorded. The fifty percent protective dose values (PD50) were then calculated.

In test [4] the test system is Pseudomonas aeruginosa MGH-2. In words: in vitro antibacterial activity, serial dilution (MIC). The settings on record: MGH2, 18-20 hours, 37° C., about 1×10^5 cells/ml, read-out: Minimal Inhibitory Concentration. In kind it is cell-based. On the procedure:
as §1

Test [5] concerns Staphylococcus aureus Smith. The test is described as above. In kind it is cell-based. The settings on record: 18-20 hours, 37° C., about 1×10^5 cells/ml, read-out: Minimal Inhibitory Concentration. How it is done: as §1
Test [6] relates to Streptococcus pyogenes C203. The test is described as above. In kind it is cell-based. The conditions noted are these: broth with heat-inactivated normal horse serum, 18-20 hours, 37° C., read-out: Minimal Inhibitory Concentration. How it is done: as §1
Test [7] concerns Klebsiella pneumoniae 39645. In words: in vivo antibacterial activity in mice infected with K. pneumoniae. Also on record: species or system female mice. The conditions noted are these: Klebsiella pneumoniae, 39645, sc, 336 h; K. pneumoniae intramuscularly; s.c. 17 h and 1 h preinfection, 6 h postinfection, twice a day next three days; fourteen days; read-out: Protective Dose (PD50). How it is done:
as §2, §3, §4
K. pneumoniae: mice were inoculated intramuscularly in the right hind leg with 0.2 ml of the bacterial test inoculum (2.05×10^4 cells/ml).
Mice infected with K. pneumoniae were medicated at the following times: seventeen hours and one hour preinfection, six hours postinfection and twice a day for the next three days. The test compound was administered by the subcutaneous (0.2 ml) route. Deaths were recorded daily for fourteen days.
as §5

[8] abbreviates: Escherichia coli, E. coli, in vitro, read-out: MIC.
The mark [9] stands for this setting: Proteus mirabilis, P. mirab., in vitro, read-out: MIC.
The mark [10] stands for this setting: Proteus vulgaris, 9920, P. vulg., in vitro, read-out: MIC.
The mark [11] stands for this setting: Escherichia coli Vogel, 18-20 hours, 37° C., about 1×10^5 cells/ml, read-out: Minimal Inhibitory Concentration.
The mark [12] stands for this setting: Klebsiella pneumoniae 39645, 18-20 hours, 37° C., about 1×10^5 cells/ml, read-out: Minimal Inhibitory Concentration.
Setting [13] is: Proteus mirabilis MGH-1, 18-20 hours, 37° C., about 1×10^5 cells/ml, read-out: Minimal Inhibitory Concentration.
Setting [14] is: Proteus vulgaris 9920, 18-20 hours, 37° C., about 1×10^5 cells/ml, read-out: Minimal Inhibitory Concentration.
[15] abbreviates: E. coli intraperitoneally, single s.c. dose one-half hour post infection, seven days, read-out: Protective Dose (PD50).

As for `Nn1cc(C(=O)O)c(=O)c2cc3c(cc21)OCO3` [Example 2, 5-Amino-5,8-dihydro-8-oxo-1,3-dioxolo[4,5-g]quinoline-7-carboxylic acid], the MIC in the test on Escherichia coli Vogel [1] (setting [8]) stood at 7.8 µg/mL (≈ 31.4 µM); in the test with Proteus mirabilis MGH-1 (setting [9]), 3.9 µg/mL (≈ 15.7 µM); in the test on Proteus vulgaris 9920 (setting [10]), 3.9 µg/mL (≈ 15.7 µM).
With `CN(C=O)n1cc(C(=O)O)c(=O)c2cc3c(cc21)OCO3` [Example 7, 5-[(Formyl)methylamino]5,8-dihydro-8-oxo-1,3-dioxolo[4,5-g]-quinoline-7-carboxylic acid], the MIC came out at 31.3 µg/mL (≈ 108 µM) in the test on Escherichia coli Vogel [1] (setting [8]); 15.6 µg/mL (≈ 53.8 µM) in [2] (Klebsiella pneumoniae, 39645, K. pneum., in vitro, read-out: MIC); 7.8 µg/mL (≈ 26.9 µM) in the test on Proteus mirabilis MGH-1 (setting [9]); 15.6 µg/mL (≈ 53.8 µM) with Proteus vulgaris 9920 (setting [10]). In addition, in the test on Escherichia coli Vogel [3] (in vivo against E. coli, read-out: PD50), the ED50 amounted to 40 mg/kg.
Regarding `CNn1cc(C(=O)O)c(=O)c2cc3c(cc21)OCO3` [Example 9, 5,8-Dihydro-5-(methylamino)-8-oxo-1,3-dioxolo[4,5-g]quinoline-7-carboxylic acid], the MIC in the test on Escherichia coli Vogel [1] (setting [11]) was determined as 0.25 µg/mL (≈ 0.953 µM); in [2] (setting [12]), 1 µg/mL (≈ 3.81 µM); in the test on Proteus mirabilis MGH-1 (setting [13]) it was 0.25 µg/mL (≈ 0.953 µM); with Proteus vulgaris 9920 (setting [14]), 0.125 µg/mL (≈ 0.477 µM); in test [4] it was 15.6 µg/mL (≈ 59.5 µM); in test [5], 3.9 µg/mL (≈ 14.9 µM). In addition, the MIC in test [6] is above 500 µg/mL. The figures for the ED50 (with Escherichia coli Vogel [3] (setting [15]); in [7]) were 3.3 mg/kg and 28 mg/kg, respectively.
As to `CCNn1cc(C(=O)O)c(=O)c2cc3c(cc21)OCO3` [Example 12, 5-(Ethylamino)-5,8-dihydro-8-oxo-1,3-dioxolo[4,5-g]quinoline-7-carboxylic acid], the MIC in the test with Escherichia coli Vogel [1] (setting [11]) was 1 µg/mL (≈ 3.62 µM); in [2] (setting [12]), 1.95 µg/mL (≈ 7.06 µM); in the test with Proteus mirabilis MGH-1 (setting [13]), 1.95 µg/mL (≈ 7.06 µM); with Proteus vulgaris 9920 (setting [14]), 0.25 µg/mL (≈ 0.905 µM); in test [4], above 62.5 µg/mL; in test [5] it was above 15.6 µg/mL. Also, the MIC in test [6] is above 62.5 µg/mL. In addition, the ED50 in the test with Escherichia coli Vogel [3] (setting [15]) amounted to 7 mg/kg; in test [7], 50 mg/kg.
`CCCNn1cc(C(=O)O)c(=O)c2cc3c(cc21)OCO3` [Example 14, 5,8-Dihydro-8-oxo-5-(propylamino)-1,3-dioxolo[4,5-g]quinoline-7-carboxylic acid]: the MIC in the test on Escherichia coli Vogel [1] (setting [11]) was above 7.8 µg/mL; in [2] (setting [12]), above 7.8 µg/mL; with Proteus mirabilis MGH-1 (setting [13]) it was above 7.8 µg/mL; in the test on Proteus vulgaris 9920 (setting [14]), 3.9 µg/mL (≈ 13.4 µM); in test [4], above 62.5 µg/mL; in test [5], above 62.5 µg/mL. In addition, the MIC in test [6] was above 62.5 µg/mL. The ED50 in the test with Escherichia coli Vogel [3] (setting [15]) was 141 mg/kg; in test [7] it was above 200 mg/kg.
